Measured values reported in PubChem BioAssay AID342 (DTP/NCI, 2004).
Several values for one entry are separate records, joined by “and”; a condition that tells them apart may be missing. Equal values may be shown once.

System: Swiss mice, Sarcoma 180 sc, mean tumor weight T/C
Experiment: NCI In Vivo Anticancer Drug Screen. Data for tumor model Sarcoma 180 (subcutaneous) in Swiss mice
Conditions: endpoint: mean tumor weight, higher = larger tumour
Outline: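 Mice bearing transplanted tumors were treated with compound, and survival or tumor size was measured. Values are expressed as the treated-group measurement (T) divided by the vehicle-treated control measurement (C).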

In the case of `CN(Cc1cnc2nc(N)nc(N)c2n1)c1ccc(C(=O)N[C@@H](CCC(=O)O)C(=O)O)cc1`, the T/C (dose: 0.12 mg/kg/injection, schedule: Q01DX007 (ip), vehicle: water) is reported as 101 % of control, the T/C (dose: 0.12 mg/kg/injection, schedule: Q#A X014 (ip), vehicle: carboxymethylcellulose (CMC)) is reported as 123 % of control and the T/C (dose: 0.25 mg/kg/injection, schedule: Q01DX007 (ip), vehicle: water) is reported as 57 % of control. The T/C (dose: 0.25 mg/kg/injection, schedule: Q#A X014 (ip), vehicle: carboxymethylcellulose (CMC)) was 121 % of control, the T/C (dose: 0.5 mg/kg/injection, schedule: Q01DX007 (ip), vehicle: carboxymethylcellulose (CMC)) was 95 % of control and 110 % of control and the T/C (dose: 0.5 mg/kg/injection, schedule: Q#A X014 (ip), vehicle: carboxymethylcellulose (CMC)) was 73 % of control. For the same compound, the T/C (dose: 0.76 mg/kg/injection, schedule: Q01DX007 (ip), vehicle: carboxymethylcellulose (CMC)) was 119 % of control, the T/C (dose: 1.0 mg/kg/injection, schedule: Q01DX007 (ip), vehicle: carboxymethylcellulose (CMC)) was 107 % of control and the T/C (dose: 1.26 mg/kg/injection, schedule: Q01DX007 (ip), vehicle: carboxymethylcellulose (CMC)) was 68 % of control. For the same compound, the T/C (dose: 1.5 mg/kg/injection, schedule: Q01DX007 (ip), vehicle: carboxymethylcellulose (CMC)) was 78 % of control and 86 % of control, the T/C (dose: 1.9 mg/kg/injection, schedule: Q01DX007 (ip), vehicle: carboxymethylcellulose (CMC)) was 68 % of control and the T/C (dose: 237.0 micrograms/kg/injection, schedule: Q01DX007 (ip), vehicle: carboxymethylcellulose (CMC)) was 105 % of control. The T/C (dose: 475.0 micrograms/kg/injection, schedule: Q01DX007 (ip), vehicle: carboxymethylcellulose (CMC)) was 104 % of control, the T/C (dose: 950.0 micrograms/kg/injection, schedule: Q01DX007 (ip), vehicle: carboxymethylcellulose (CMC)) was 83 % of control and the T/C (dose: 1900.0 micrograms/kg/injection, schedule: Q01DX007 (ip), vehicle: carboxymethylcellulose (CMC)) was 32 % of control.

`CCCCCC[C@@H](O)C/C=C\CCCCCCCC(=O)O` was tested, and the T/C (dose: 31.3 mg/kg/injection, schedule: Q01DX007 (ip), vehicle: saline) was 59 % of control, the T/C (dose: 62.5 mg/kg/injection, schedule: Q01DX007 (ip), vehicle: saline) was 95 % of control and the T/C (dose: 125.0 mg/kg/injection, schedule: Q01DX007 (ip), vehicle: saline) was 87 % of control.

In the case of `C[C@]12CC[C@H](O)C[C@H]1CC[C@@H]1[C@@H]2CC[C@]2(C)[C@@H](C3=CC(=O)OC3)[C@@H](O)C[C@]12O`, the T/C (dose: 3.0 mg/kg/injection, schedule: Q01DX007 (sc), vehicle: steriod suspending solution) is reported as 78 % of control, the T/C (dose: 10.0 mg/kg/injection, schedule: Q01DX007 (sc), vehicle: steriod suspending solution) is reported as 64 % of control and the T/C (dose: 25.0 mg/kg/injection, schedule: Q01DX007 (sc), vehicle: steriod suspending solution) is reported as 50 % of control. The T/C (dose: 50.0 mg/kg/injection, schedule: Q01DX007 (sc), vehicle: steriod suspending solution) was 70 % of control.

`ClCc1c2ccccc2c(CCl)c2ccccc12` was tested, and the T/C (dose: 0.25 mg/kg/injection, schedule: Q01DX007 (ip), vehicle: methylcellulose (MC)) was 95 % of control, the T/C (dose: 0.5 mg/kg/injection, schedule: Q01DX007 (ip), vehicle: methylcellulose (MC)) was 89 % of control and the T/C (dose: 1.0 mg/kg/injection, schedule: Q01DX007 (ip), vehicle: methylcellulose (MC)) was 122 % of control. The T/C (dose: 1.5 mg/kg/injection, schedule: Q01DX007 (ip), vehicle: methylcellulose (MC)) was 72 % of control, the T/C (dose: 1.8 mg/kg/injection, schedule: Q01DX007 (ip), vehicle: other) was 22 % of control and the T/C (dose: 1.8 mg/kg/injection, schedule: Q01DX007 (ip), vehicle: saline) was 113 % of control. For the same compound, the T/C (dose: 2.0 mg/kg/injection, schedule: Q01DX007 (ip), vehicle: methylcellulose (MC)) was 72 % of control, the T/C (dose: 2.6 mg/kg/injection, schedule: Q01DX007 (ip), vehicle: other) was 23 % of control and the T/C (dose: 2.6 mg/kg/injection, schedule: Q01DX007 (ip), vehicle: saline) was 102 % of control. The T/C (dose: 4.0 mg/kg/injection, schedule: Q01DX007 (ip), vehicle: other) was 26 % of control, the T/C (dose: 6.0 mg/kg/injection, schedule: Q01DX007 (ip), vehicle: other) was 17 % of control and the T/C (dose: 9.0 mg/kg/injection, schedule: Q01DX007 (ip), vehicle: saline) was 40 % of control.

With `Cc1ccccn1` the T/C (dose: 200.0 mg/kg/injection, schedule: Q01DX007 (ip), vehicle: saline) was 87 % of control and the T/C (dose: 400.0 mg/kg/injection, schedule: Q01DX007 (ip), vehicle: saline) was 151 % of control.
